Assay results taken from patent publication US20060223050A1, “Therapeutic platelets and methods” (The Regents of the University of California Office of …, priority 2003, published 2006).
Where “and” joins values, the source holds several entries; their conditions need not be identical. Identical values can stand only once. Each block holds one molecule with its values, some of them ahead of it.

Tests used:
[1] = test system: erythrocyte membranes; experiment: FTIR membrane phase transitions of erythrocytes
[2] = test system: human platelets; experiment: Loading of platelets with trehalose (anthrone quantification); format: cell-based; conditions: 37° C., from 0 to 2 hours
Protocol: Washing of Platelets. Platelet concentrations were obtained from the Sacramento blood center or from volunteers in our laboratory. Platelet rich plasma was centrifuged for 8 minutes at 320×g to remove erythrocytes and leukocytes. The supernatant was pelleted and washed two times (480×g for 22 minutes, 480×g for 15 minutes) in buffer A (100 MM NaCl, 10 MM KCl, 10 mM EGTA, 10 mM imidazole, pH 6.8). Platelet counts were obtained on a Coulter counter T890 (Coulter, Inc., Miami, Fla.).
Loading of Platelets with Trehalose. Washed platelets in a concentration of 1-2 10^9 platelets/ml were incubated at various temperatures in the presence of 1-20 mg/ml trehalose. […] The amount of trehalose in the platelets was quantified using the anthrone reaction (Umbreit et al., Mamometric and Biochemical Techniques, 5th Edition, 1972). […] Then the samples were cooled on ice and the absorbance was measured at 620 nm on a Perkin Elmer spectrophotometer. The amount of platelet associated trehalose was determined using a standard curve of trehalose.
Quantification of Trehalose and LYCH Concentration. Uptake was calculated for each sample as micrograms of trehalose or LYCH per platelet. The internal trehalose concentration was calculated assuming a platelet radius of 1.2 μm and by assuming that 50% of the platelet volume is taken up by the cytosol (rest is membranes). […]

[3] = test system: mesenchymal stem cells; experiment: Growth curves of mesenchymal stem cells with 90 mM trehalose; format: cell-based, human
Protocol: Growth Curves. MSCs were plated into 12-welled plates at approximately the same seeding density used for T-185 flasks in standard Osiris protocols (5900 cells/cm^2 with fluid volume of 0.189 mL/cm^2). Three wells for each condition at each time point were trypsinized and counted. Data for cells grown in the presence of trehalose were lost for the first two time points. FIG. 13 is a graph illustrating growth curves for the mesenchymal stem cells in the presence or absence of 90 mM trehalose with the open triangle data representing cells grown in standard medium for 24 hours, after which 90 mM trehalose was added.

[4] = State diagram (glass transition temperature vs water content) by differential scanning calorimeter; format: physicochemical; conditions: FIG. 40, assuming sample temperature of −50° C.
Excerpt: In another embodiment of the invention, it has been discovered that protein alters the physical properties of a preservative solution. More specifically, it has been discovered that the protein albumin alters the physical properties of the oligosaccharide trehalose solution as broadly illustrated in FIG. 40, which are graphs representing state diagrams (e.g., glass transition temperature vs. water content) for trehalose:water mixtures and for trehalose-albumin(1/1, wt/wt):water mixtures. A state diagram is a measure of the glass transition temperatures (Tg) for the respective mixtures (i.e., the various preservative:water mixtures and the various preservative-protein:water mixtures). The state diagrams broadly illustrated in FIG. 40 were obtained by respectively freeze-drying trehalose alone and freeze-drying a 1:1 (wt:wt) trehalose:albumin solution, and then adding back known amounts of water to the respective freeze-dried solutions. The glass transition temperatures for the trehalose:water solution and for the trehalose/albumin:solution were measured by a differential scanning calorimeter with conventional methods.

[5] = test system: human platelets; experiment: Stability of platelets during trehalose incubation (microscopy, flow cytometric analysis); format: cell-based
Protocol: The uptake of trehalose is linear in the range from 0 to 30 mM external trehalose. The highest internal trehalose concentration is obtained with 50 mM external trehalose. At higher concentrations than 50 mM the internal trehalose concentration decreases again. Even when the loading buffer at these high trehalose concentrations is corrected for isotonicity by adjusting the salt concentration, the loading efficiency remains low. Platelets become swollen after 4 hours incubation in 75 mM trehalose.
The stability of the platelets during a 4 hours incubation period was studied using microscopy and flow cytometric analysis. […] No signs of microvesicle formation could be observed after 4 hours incubation, as can be judged by the stable relative proportion of microvesicle gated cells (less than 3%). The formation of microvesicles is usually considered as the first sign of platelet activation (Owners et al., Trans. Med. Rev., 8, 27-44, 1994). Characteristic antigens of platelet activation include: glycoprotein 53 (gp53, a lysosomal membrane marker), PECAM-1 (platelet endothelial cell adhesion molecule-1, an alpha granule constituent), and P-selection (an alpha granule membrane protein).

[6] = erythrocytes incubated 37° C. one hour with MβCD

Molecule: CC(C)c1c(C(=O)Nc2ccccc2)c(-c2ccccc2)c(-c2ccc(F)cc2)n1CC[C@@H](O)C[C@@H](O)CC(=O)O [LIPITOR]
total wavenumber excursion ([1]; from −5 to 45° C., erythrocytes of a donor who used LIPITOR (other donors 0.8)): ~1.5 cm⁻¹

effect on growth of the cells ([3]; after the third day): cell count started to drop significantly
water content at which sample enters the glassy state [4]: below 0.15 gram H2O/gram dry wt
morphological changes ([5]; 4 hours at 37° C., 25 mM external trehalose): No morphological changes
platelet morphology ([5]; 4 hours incubation at 37° C. in 75 mM trehalose): swollen
relative proportion of microvesicle gated cells ([5]; 4 hours incubation, flow cytometry): less than 3%
Molecule: OC[C@H]1O[C@H](O[C@H]2O[C@H](CO)[C@@H](O)[C@H](O)[C@H]2O)[C@H](O)[C@@H](O)[C@@H]1O [trehalose]
trehalose uptake [2]: 2.8×10^−11 mol/m^2s
effect on growth of the cells ([3]; up to the third day): did not interfere with growth of the cells

Molecule: methyl-β-cyclodextrin [MβCD]
High Transition, Cooperativity [1, 6]: 0.091 ± 0.020 cm^−1/° C.
High Transition, Transition Temperature [1, 6]: 35.4 ± 1.5 °C
Low Transition, Cooperativity [1, 6]: 0.051 ± 0.004 cm^−1/° C.
Low Transition, Transition Temperature [1, 6]: 15.3 ± 0.8 °C
Middle Transition, Cooperativity [1, 6]: 0.095 ± 0.015 cm^−1/° C.
Middle Transition, Transition Temperature [1, 6]: 25 °C and 26.0 ± 0.8 °C
wavenumber excursion of lipid CH2 band ([1]; from −5 to 45° C., after cholesterol removal (control 0.7)): 2.9 cm⁻¹
